The record followed here is article PMC4104781 (Journal of controlled release : official journal of the …, 2013).

Series [1] can be described thus: TPT lactone-carboxylate interconversion. The format is physicochemical. Particulars: 37 °C, aqueous buffers pH 5.92-7.67, fit of kinetic interconversion model.
Series [2] can be described thus: Spectrometric. Particulars: aqueous buffer solutions at various pH, pH 3.5. The class given is physicochemical.
Series [3] is classed as physicochemical.
[4] abbreviates: DSPC/DSPE-PEG2K bilayer, model fit of release profiles.
The mark [5] stands for this setting: DSPC/DSPE-PEG2K liposomes, 38.7 ± 0.1 °C, model fit over pH 3.35-7.67.

Usually pKa stands for the negative logarithm of the acid dissociation constant. A lower pKa goes with a group that gives up its proton readily. Regarding `CC[C@@]1(O)C(=O)OCc2c1cc1n(c2=O)Cc2cc3c(CN(C)C)c(O)ccc3nc2-1` [TPT, topotecan], in series [1], the “base-catalyzed ring-closing rate constant (kc,OH)” value is 7.4 ± 0.3 × 10^8 mol^−1hr^−1 and the “carboxylic acid/lactone equilibrium constant (K0)” value is reported as 1.98 ± 0.07 × 10^−3. Besides, the pKa in series [2] was 6.56 ± 0.12. Moreover, in series [3] (setting [4]), the “binding to the phospholipid bilayer, anionic carboxylate form (Ca)” value is “negligible binding”; the “binding to the phospholipid bilayer, zwitterionic lactone (Ln)” value is reported as “negligible binding”; the “membrane partition coefficient, lactone species with unionized phenol (Lp)” value came to 61.7 ± 5.9. Further, in series [3] (setting [5]), the “bilayer transport of the anionic carboxylate form (Ca)” value is recorded as “impermeable”; the “transport rate constant, cationic lactone species (Lp)” value was 0.51 ± 0.07 h⁻¹; the “transport rate constant, ring-opened carboxylate zwitterion (Cn)” value worked out at 5.7 ± 0.5 h⁻¹; the “transport rate constant, zwitterionic lactone (Ln)” value came to 33.9 ± 4.6 h⁻¹.
